# What was measured:
# Assay in all cases: relative viability (nuclei count vs DMSO), 5 days (fraction); higher = more cells survive
# Vemurafenib + AZD7762 = compound: CCCS(=O)(=O)Nc1ccc(F)c(C(=O)c2c[nH]c3ncc(-c4ccc(Cl)cc4)cc23)c1F [Vemurafenib] + NC(=O)Nc1cc(-c2cccc(F)c2)sc1C(=O)N[C@H]1CCCNC1 [AZD7762] (partner 0.2 µM)
# Method in brief: (§1)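 A single step with final 0.05% Triton X-100, 1% formaldehyde and 1 ug/ml Hoechst fixed the cells and stained nuclei 5 days after treatment. Lung cancer cell lines in 1536-well plates had been treated by pin tool the day after seeding with one drug alone or a fixed anchor-drug dose plus five library-drug doses (not always all listed) in √10 steps, and nuclei were counted on 4× images. Relative viability is the ratio of nuclei in treated wells to nuclei in vehicle wells, taken as the median of duplicate plates.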
# Alpelisib + Lapatinib = compound: Cc1nc(NC(=O)N2CCC[C@H]2C(N)=O)sc1-c1ccnc(C(C)(C)C(F)(F)F)c1 [Alpelisib] + CS(=O)(=O)CCNCc1ccc(-c2ccc3ncnc(Nc4ccc(OCc5cccc(F)c5)c(Cl)c4)c3c2)o1 [Lapatinib] (partner 2 µM)
# Method in brief: as §1
# Alpelisib + Linsitinib = compound: Cc1nc(NC(=O)N2CCC[C@H]2C(N)=O)sc1-c1ccnc(C(C)(C)C(F)(F)F)c1 [Alpelisib] + C[C@]1(O)C[C@@H](c2nc(-c3ccc4ccc(-c5ccccc5)nc4c3)c3c(N)nccn32)C1 [Linsitinib] (partner 1 µM)
# Method in brief: as §1
# Alpelisib + Dasatinib = compound: Cc1nc(NC(=O)N2CCC[C@H]2C(N)=O)sc1-c1ccnc(C(C)(C)C(F)(F)F)c1 [Alpelisib] + Cc1nc(Nc2ncc(C(=O)Nc3c(C)cccc3Cl)s2)cc(N2CCN(CCO)CC2)n1 [Dasatinib] (partner 0.075 µM)
# Method in brief: as §1
Cell Line,relative viability (Vemurafenib + AZD7762; first compound 0.03162 µM),relative viability (Vemurafenib + AZD7762; first compound 0.1 µM),relative viability (Vemurafenib + AZD7762; first compound 0.3162 µM),relative viability (Vemurafenib + AZD7762; first compound 1 µM),relative viability (Alpelisib + Lapatinib; first compound 0.04 µM),relative viability (Alpelisib + Lapatinib; first compound 0.1265 µM),relative viability (Alpelisib + Lapatinib; first compound 0.4 µM),relative viability (Alpelisib + Lapatinib; first compound 1.265 µM),relative viability (Alpelisib + Lapatinib; first compound 4 µM),relative viability (Alpelisib + Linsitinib; first compound 0.04 µM),relative viability (Alpelisib + Linsitinib; first compound 0.1265 µM),relative viability (Alpelisib + Linsitinib; first compound 0.4 µM),relative viability (Alpelisib + Linsitinib; first compound 1.265 µM),relative viability (Alpelisib + Linsitinib; first compound 4 µM),relative viability (Alpelisib + Dasatinib; first compound 0.04 µM),relative viability (Alpelisib + Dasatinib; first compound 0.1265 µM),relative viability (Alpelisib + Dasatinib; first compound 0.4 µM),relative viability (Alpelisib + Dasatinib; first compound 1.265 µM),relative viability (Alpelisib + Dasatinib; first compound 4 µM)
201T,0.652,0.515,0.604,0.617,1.02,0.988,1.02,1.01,0.945,0.93,0.936,0.989,0.806,0.917,0.561,0.487,0.541,0.434,0.359
H3255,0.843,,0.723,0.949,0.242,0.215,0.259,0.203,0.197,0.979,1.01,1.07,0.715,0.794,0.403,0.345,0.363,0.315,0.256
NCI-H1395,0.397,0.411,0.381,0.373,0.88,0.909,1.15,0.75,0.921,1.12,1.17,1.42,0.82,1.18,0.461,0.376,0.457,0.356,0.394
NCI-H1355,0.672,0.663,0.603,0.698,0.963,0.961,0.985,0.918,0.806,0.762,0.837,0.828,0.774,0.722,0.708,0.551,0.699,0.434,0.443
HCC-827,0.234,,0.198,0.265,0.19,0.192,0.211,0.179,0.188,0.942,0.979,1.04,0.925,0.924,0.378,0.427,0.296,0.234,0.233
NCI-H2085,0.893,0.804,0.928,0.997,0.742,0.624,0.839,0.635,0.623,0.874,0.905,0.852,0.731,0.853,0.275,0.225,0.265,0.263,0.215
NCI-H1755,0.483,0.459,0.328,0.408,1.03,0.962,1.11,0.911,0.851,1.01,0.941,1.03,0.978,0.764,0.382,0.415,0.418,0.327,0.228
PC-14,0.272,,,0.356,0.358,0.401,0.301,0.265,0.235,0.91,0.894,0.98,0.856,0.816,0.256,0.243,0.23,0.221,0.202
NCI-H3122,0.988,0.895,0.922,1.09,1.01,1.02,1.07,1.02,0.919,0.994,0.938,1.02,0.715,0.675,0.806,0.653,0.624,0.487,0.295
NCI-H460,0.579,0.604,,0.619,1.02,0.948,1.03,0.662,0.439,0.716,0.722,0.516,0.261,0.284,0.42,0.484,0.457,0.245,0.174
NCI-H1915,0.644,0.728,0.587,0.612,1.01,0.979,0.957,0.949,0.944,1.11,1.1,1.17,1.02,1.08,0.29,0.28,0.313,0.268,0.276
NCI-H2126,0.971,0.997,0.99,1.1,0.75,0.704,0.701,0.567,0.499,0.682,0.716,0.66,0.698,0.63,0.599,0.564,0.507,0.354,0.307
EPLC-272H,0.251,0.166,0.156,0.218,0.859,0.842,0.805,0.7,0.525,1.1,0.977,1.34,0.937,0.893,0.313,0.281,0.219,0.201,0.202
PC-3 [JPC-3],,,0.785,0.94,0.438,0.555,0.404,0.424,0.394,0.948,0.974,1.03,0.883,0.933,0.948,0.928,0.993,0.903,0.907
NCI-H2087,1.12,1.31,1.09,1.19,1.02,0.978,1.26,0.703,0.97,0.853,0.979,1.05,0.803,1.07,0.959,0.883,1.12,0.691,0.56
NCI-H1666,0.782,0.73,0.729,0.829,0.668,0.381,0.682,0.475,0.356,0.805,0.705,0.772,1.01,0.793,0.851,0.764,0.792,0.698,0.666
LCLC-97TM1,0.286,0.298,0.326,0.342,0.75,0.854,0.656,0.686,0.387,0.167,0.167,0.192,0.157,0.16,0.843,0.75,0.855,0.641,0.566

# Source: the supplement of paper PMC10307832
